Consider six compounds from patent publication US20260069699A1, “Hybrid Curcumin Conjugates And Methods Of Use Thereof” (AUGUSTA UNIVERSITY RESEARCH INSTITUTE, INC., priority 2020, published 2026).

The test system of one data set is MDA-MB231 (MB231) cells. Briefly: MTT cell proliferation assay, MB231 cells. It is filed as cell-based, human. The procedure: (§1) We tested the antitumor potential of All the synthesized six DCA-curcumin hybrid conjugates (CMC 1-CMC 6) with two different human breast cancer cell lines [T47D, an ER-positive BC cell line and MDA-MB231 (MB231), a triple-receptor negative BC (TNBC) cell line] using the colorimetric MTT (3-(4,5-dimethylthiazol-2yl)-2,5-diphenyltetrazolium bromide) cell proliferation assay kit.
(§2) […] and MB231 cells (5×10^3) were seed in 96-well plates and left them in the cell culture incubator at 37° C. with 5% CO2 in DMEM and RPMI medium (100 μl), respectively. After 24 h, the medium was replaced with the CMC compounds at different concentrations (0, 1, 5, and 10 μM) for 72 h. After 72 h, 10 μl Reliablue reagent was added to each well and incubated for 2 h for the formation of purple formazan and then added 100 μl of detergent to dissociate the formazan precipitate and measured at 570 nm. Values are shown as mean±SEM of three experiments with 6 wells in each, a total of 18 repeats.
Background: Tetrazolium assays rely on reduction of a dye to a coloured formazan, in cell work by metabolically active cells.

A further data set deals with T47D cells. Briefly: MTT cell proliferation assay, T47D cells. The format is cell-based, human. Particulars: 72 h. The procedure:
as §1, §2

In the next data set the test system is MMTV-PyMT-Tg mice. Briefly: Tumor growth in genetically engineered mouse (GEM) model of breast cancer. It is filed as in vivo. The settings on record: 10 mg/kg body, three times a week by oral gavage for 7 weeks. The procedure: The antitumor potential of one of the most potential CMC compound, CMC2, in genetically engineered mouse (GEM) model of breast cancer, MMTV-PyMT-Tg mice was tested. The MMTV-PyMT-Tg mouse was mainly chosen because the tumor formation and progression in this mouse is characterized by four different stages (hyperplasia, adenoma/mammary intra-epithelial neoplasia, early and late carcinoma) and also mimics human breast cancer, the tumor develops first as ER-positive (ER^+) but ultimately becomes ER-negative BC (ER^− BC).
It was randomly assigned 6-week-old MMTV-PyMT-Tg mice into two groups (3 mice in each); one control and one CMC2 treated (10 mg/kg body, three times a week by oral gavage for 7 weeks). Tumor volume was measured twice a week and the volume was calculated using the formula V=L×W^2/2, where L represents the largest tumor diameter and W represents the smallest tumor diameter. After the experimental period, tumor tissues were collected, a picture was taken, and tumor weight was measured. Tissue sections were prepared from the tumor tissue and stained for Hematoxylin and Eosin (H & E) section and also stained for the Ki67 for cell proliferation. Tissue sections and H & E sections were prepared from the Augusta University Histology core facility.
Six-week-old MMTV-PyMT-Tg mice were treated with CMC2 (10 mg/kg body for 3× a week for 7 weeks. Control mice received PBS. Tumor volume was measured twice a week and calculated (A). After the experimental period, tumor size (B) and tumor weight (C) were also analyzed. Tissue sections were prepared and stained with H & E and Ki67 (D). Values are shown as mean±SD of three mice in each.

The next data set concerns FVB/N mice. Briefly: Adverse effects and toxicity in normal mice. The format is in vivo, mouse. The settings on record: oral gavage 50 and 100 mg/kg body, 7 days. The method, then: Adverse effects and toxicity to the normal cells are the most challenging part of the anticancer drug development process. […] The body weight and any side effects of contraindication monitored during the period.
Control mice received PBS. After one weak of drug administration, mouse weight was measured every day for 7 days. We used 3 mice in each group. (A) Body weight changes in control mice (B and C) Body weight changes in CMC1 (50 and 100 mg/kg body). (D and E) Body weight changes in CMC1 (50 and 100 mg/kg body) Computational Studies: […]

Molecules are shown by their SMILES.

On to `COc1cc(/C=C/C(=O)/C=C(O)/C=C/c2ccc(OC(=O)[C@H](C)NC(=O)C(Cl)Cl)c(OC)c2)ccc1OC(=O)[C@H](C)NC(=O)C(Cl)Cl` [CMC 3], for which the half-maximal effective concentration (EC50) (usually the concentration giving half of the maximal effect) in the data set with MDA-MB231 (MB231) cells (72 h) worked out at 518 nM; in the data set on T47D cells, 1600 nM.

Consider `COc1cc(/C=C/C(=O)/C=C(O)/C=C/c2ccc(OC(=O)[C@H](Cc3ccccc3)NC(=O)C(Cl)Cl)c(OC)c2)ccc1OC(=O)[C@H](Cc1ccccc1)NC(=O)C(Cl)Cl` [CMC 5], for which the EC50 was found to be 838 nM with MDA-MB231 (MB231) cells (72 h) and 1240 nM in the data set with T47D cells.

Take `COc1cc(/C=C/C(=O)/C=C(O)/C=C/c2ccc(OC(=O)CNC(=O)C(Cl)Cl)c(OC)c2)ccc1OC(=O)CNC(=O)C(Cl)Cl` [CMC 2]: in the data set on MMTV-PyMT-Tg mice, the “tumor growth (tumor volume)” value is “significantly reduced”, the tumor size result is on record as “significantly reduced” and the tumor weight result is recorded as “significantly reduced”. Also, the EC50 in the data set on MDA-MB231 (MB231) cells (72 h) is 778 nM. In addition, the EC50 with T47D cells came out at 1420 nM. Besides, in the data set with FVB/N mice, the “contraindication / side effects” value is on record as “no contraindication” and the “mouse growth (body weight)” value was “normal”.

In turn, `COc1cc(/C=C/C(=O)/C=C(O)/C=C/c2ccc(OC(=O)C(Cl)Cl)c(OC)c2)ccc1OC(=O)C(Cl)Cl` [CMC 1] came in with a concentration giving a half-maximal response (EC50) in the data set on MDA-MB231 (MB231) cells (Homo sapiens, MDA-MB-231, 72 h) of 424 nM. For the same compound, in the data set on FVB/N mice, the “contraindication / side effects” value is on record as “no contraindication” and the “mouse growth (body weight)” value is “normal”.

Take `COc1cc(/C=C/C(=O)/C=C(O)/C=C/c2ccc(OC(=O)CCCNC(=O)C(Cl)Cl)c(OC)c2)ccc1OC(=O)CCCNC(=O)C(Cl)Cl` [CMC 6]: the EC50 with MDA-MB231 (MB231) cells (72 h) turned out to be 942 nM; in the data set on T47D cells, 1370 nM.

For the compound `COc1cc(/C=C/C(=O)/C=C(O)/C=C/c2ccc(OC(=O)CCNC(=O)C(Cl)Cl)c(OC)c2)ccc1OC(=O)CCNC(=O)C(Cl)Cl` [CMC 4], the EC50 with MDA-MB231 (MB231) cells (72 h) is 1130 nM; in the data set with T47D cells, 1260 nM.
